Laboratory results published in US20200138727A1, “ENHANCED THERAPEUTIC AGENT AND NUCLEIC ACID DELIVERY VIA HDL OR RECONSTITUTED HDL NANOPARTICLES” (UNIVERSITY OF NORTH TEXAS HEALTH SCIENCE CENTER, priority 2017, published 2020).

Assays:
[1] = test system: DU-145 (prostate cancer) cells; experiment: Confocal / fluorescence lifetime microscopy of doxorubicin uptake from rHDL-Doxorubicin nanoparticles; assay type: cell-based
Experimental: The data presented in FIGS. 11-12 were obtained via fluorescence lifetime microscopy via the following protocols. Apo A-I was labeled with Alexa Fluor 647 (Fluorescent dye Excitation: 650 nm; Emission:665 nm), using Alexa Fluor™ 647 Antibody Labeling Kit (by Thermo Fisher) according to the manufacturer's protocol. The rHDL-Doxorubicin nanoparticles were prepared with the Alexa Fluor 647 labeled Apo A-I, using the cholate dialysis protocol. The DU-145 (prostate cancer) cells were treated with the rHDL-Doxorubicin nanoparticles at 37° C./5% CO2 and observed under confocal microscopy for uptake of doxorubicin. In order to inhibit the uptake, […] antibody was used to block the receptor activity.
For imaging, the cells were plated on custom glass bottom petri dishes. Before imaging, the cells were washed with PBS, and doped with several concentrations of free or rHDL-doxorubicin formulations. For SR-B1 receptor blocking, the DU-145 cells were incubated with antibodies for SR-B1 receptor for 30 minutes at 5% CO2 and 37° C. The cells were excited with a 470 nm diode at 70% power, and the emission imaged at 600 nm. […] For dual label experiments, the samples were excited at 470 nm and 630 nm, with a 520 nm long pass filter on channel 1 to observe DOX fluorescence, and a 647 nm long pass on filter on channel 2 to observe […] emission. […]

cancer cells = conditions: encapsulated by HDL delivery particles; HDL receptor mediated mechanism (Lacko et al., 2002); cited from earlier work

## COc1cccc2c1C(=O)c1c(O)c3c(c(O)c1C2=O)C[C@@](O)(C(=O)CO)C[C@@H]3O[C@H]1C[C@H](N)[C@H](O)[C@H](C)O1 [doxorubicin]
[1]; DU-145 cells treated with rHDL-Doxorubicin nanoparticles, FIG. 11A, FIG. 12
  cellular localization of doxorubicin: released into the cell cytoplasm

## Alexa 647-conjugated Apo A-I: Apo A-I labeled with Alexa Fluor 647 fluorescent dye
[1]; DU-145 cells treated with rHDL-Doxorubicin nanoparticles prepared with labeled Apo A-I, FIG. 11B
  cellular localization of labeled Apo A-I: only localized in the membrane of the cell and does not enter the cell

## CC(=O)O[C@H]1C(=O)[C@@]2(C)[C@H]([C@H](OC(=O)c3ccccc3)[C@]3(O)C[C@H](OC(=O)[C@H](O)[C@@H](NC(=O)c4ccccc4)c4ccccc4)C(C)=C1C3(C)C)[C@]1(OC(C)=O)CO[C@@H]1C[C@@H]2O [paclitaxel]
Cancer cells
  uptake by cancer cells: taken up by cancer cells
